Measured values reported in PubChem BioAssay (NCI).
Converted amounts (≈) assume the structure as drawn.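 Cultured in 96-well plates, cells were exposed to test compound for 48 hours across five concentrations. GI50 marks 50% less growth. TGI denotes the concentration required for complete inhibition of growth.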

How the values were obtained:
Assay in all cases: NCI tumour cell line growth inhibition, 48 h
MDA-N = test system: MDA-N
RXF-631 renal = test system: RXF-631 renal
DLD-1 colon = test system: DLD-1 colon
DMS 273 small cell lung = test system: DMS 273 small cell lung
XF 498 CNS = test system: XF 498 CNS
SNB-78 CNS = test system: SNB-78 CNS
HOP-18 NSCLC = test system: HOP-18 NSCLC
LXFL 529 NSCLC = test system: LXFL 529 NSCLC
M19-MEL melanoma = test system: M19-MEL melanoma
P388/ADR leukemia = test system: P388/ADR leukemia
SN12K1 renal = test system: SN12K1 renal

SMILES | TGI (MDA-N) | TGI (RXF-631 renal) | TGI (DLD-1 colon) | TGI (DMS 273 small cell lung) | TGI (XF 498 CNS) | TGI (SNB-78 CNS) | TGI (HOP-18 NSCLC) | TGI (LXFL 529 NSCLC) | TGI (M19-MEL melanoma) | other results
Cc1c(NC(=O)Nc2c(Cl)cccc2Cl)c(=O)n(-c2ccccc2)n1C | > 100 µM |  |  |  |  |  |  |  |  | 
COc1cccc2c(SCC(=O)Nc3ccccc3-c3ccccc3NC(=O)CSc3c4ccccc4nc4c(OC)cccc34)c3ccccc3nc12 |  | > 100 µM | > 100 µM | > 100 µM | > 100 µM | > 100 µM |  |  |  | 
O=C(O)/C(Cl)=C(Cl)/C=N/NC(=O)c1cc2ccccc2cc1O |  | > 100 µM | > 100 µM | 45.2 µM | > 100 µM | > 100 µM | 80.5 µM | > 100 µM | 75.4 µM | 
Cc1ccc(C)c(NC(=O)C(=O)C2C(=O)N(c3ccccc3)N=C2N)c1 (stereo unspecified) |  | > 100 µM | > 100 µM | > 100 µM | > 100 µM | > 100 µM | > 100 µM | > 100 µM | > 100 µM | 
COc1ccc(NC(=O)c2oc3cc(O)ccc3c(=O)c2C)c([N+](=O)[O-])c1 |  |  | > 100 µM | > 100 µM | > 100 µM | > 100 µM | > 100 µM | > 100 µM | > 100 µM | 
CNCC(=O)NC(CO)C(=O)NC(CO)C(=O)NC1C(C(N)=O)OC(n2ccc(N)nc2=O)C(O)C1O (stereo unspecified) | > 50 µg/mL |  |  |  |  |  |  |  |  | GI50 (MDA-N): 12.4 µg/mL (≈ 23.3 µM)
Cn1c2c(c3ccccc3c1=O)C(=O)c1ccccc1-2 | > 100 µM |  |  |  |  |  |  |  |  | 
COc1cc(C2c3cc4c(cc3[C@@H](Nc3ccc([N+](=O)[O-])cc3)C3COC(=O)[C@H]23)OCO4)cc(OC)c1O (stereo partly specified) | > 100 µM | 11.4 µM | 19.2 µM | 5.65 µM | 15 µM | > 71.5 µM | 77.2 µM | 78.3 µM | 22.8 µM | GI50 (DLD-1 colon): 3.15 µM; GI50 (DMS 273 small cell lung): 274 nM; GI50 (XF 498 CNS): 613 nM; TGI (P388/ADR leukemia): 10.7 µM; GI50 (M19-MEL melanoma): 942 nM; TGI (SN12K1 renal): 2880 nM
NC(Cc1cccnn1)C(=O)O (stereo unspecified) | > 100 µM |  |  |  |  |  |  |  |  | 
COc1ccc(/C=C\c2cc(OC)c(OC)c(OC)c2)cc1OC(=O)CC(N)C(=O)O (stereo unspecified) | 0.000474 µM |  | > 100 µM | 0.00462 µM | 0.00792 µM | > 100 µM | > 100 µM |  | > 100 µM | GI50 (HOP-18 NSCLC): > 100 µM
CCCCCN(CCCCC)C(=O)[C@H](CCC(=O)O)NC(=O)c1cc2ccccc2[nH]1 |  |  | > 100 µM | > 100 µM | > 100 µM | > 100 µM |  | > 100 µM | > 100 µM | 
C[C@]12Cc3conc3C(O)=C1CC[C@@H]1C2CC[C@@]2(C)C1CC[C@]2(C)O (stereo partly specified) |  | > 100 µM | 57.5 µM | 26.3 µM | 47.2 µM | 63.4 µM |  | 35.7 µM | 41.9 µM | 
COC(=O)C(=O)C(C(C)=O)C(=O)NCc1ccccc1 (stereo unspecified) |  |  | > 100 µM | > 100 µM | > 100 µM | > 100 µM | > 100 µM | > 100 µM | > 100 µM | 
CC(=O)[CH-]C(=O)c1ccccc1.CC(=O)[CH-]C(=O)c1ccccc1.CC[C@H](/C=C/C(C)[C@H]1CCC2[C@@H]3CC=C4C[C@@H]([O-])CC[C@]4(C)C3CC[C@@]21C)C(C)C.CC[C@H](/C=C/C(C)[C@H]1CCC2[C@@H]3CC=C4C[C@@H]([O-])CC[C@]4(C)C3CC[C@@]21C)C(C)C.Cl.[Ti+4] (stereo partly specified) |  |  | > 25 µM | > 25 µM |  |  | > 25 µM | > 25 µM | > 25 µM | GI50 (HOP-18 NSCLC): > 25 µM; GI50 (DLD-1 colon): > 25 µM; GI50 (LXFL 529 NSCLC): > 25000 nM; GI50 (DMS 273 small cell lung): > 25000 nM; GI50 (M19-MEL melanoma): > 25000 nM
N#CC(C(=N/O)/C(=N\O)C(C#N)c1ccccc1)c1ccccc1 (stereo unspecified) |  | > 100 µM | > 100 µM |  | > 100 µM | > 100 µM | > 100 µM | > 100 µM | > 100 µM | 
O=C(NNc1ccccc1)c1ccc(Cl)c(Cl)c1 | > 100 µM |  |  |  |  |  |  |  |  | 
Cc1cc(Cl)ccc1N=C1NC(=O)C(CC(=O)Nc2cccc(C)c2C)S1 (stereo unspecified) |  | 84.3 µM | > 100 µM | 81 µM | 39 µM | 79.7 µM |  |  | > 100 µM | 
Cc1ccc(NC(=S)C#N)c(C)c1 | > 100 µM |  |  |  |  |  |  |  |  | 
O=C1NC2(CCCCC2)C2CCCCC=C12 (stereo unspecified) |  |  | > 100 µM | > 100 µM | > 100 µM | > 100 µM | > 100 µM | > 100 µM | > 100 µM | 
CC(=O)c1ccc2c3c1[C@H]1O[C@H]1c1cccc(c1-3)[C@@H]1O[C@H]21 | 5.86 µM |  |  |  |  |  |  |  |  | 
CCCCCCCCC(C)CCCCCCCCC(=O)OCC(COP(=O)([O-])OCC[N+](C)(C)C)OC(=O)CCCCCCCCC(C)CCCCCCCC (stereo unspecified) |  | > 100 µM | > 100 µM | > 100 µM |  | > 100 µM | > 100 µM | > 100 µM | > 100 µM | 
Nn1c(-c2cccc(Cl)c2)nc2ccccc2c1=O |  | > 100 µM | > 100 µM | > 100 µM | > 100 µM | > 100 µM | > 100 µM | > 100 µM |  | 

SMILES | TGI (MDA-N) | TGI (RXF-631 renal) | TGI (DLD-1 colon) | TGI (DMS 273 small cell lung) | TGI (XF 498 CNS) | TGI (SNB-78 CNS) | TGI (HOP-18 NSCLC) | TGI (LXFL 529 NSCLC) | TGI (M19-MEL melanoma) | other results
COC(=O)C12C34C=CC5(CCC6(C=CC1(CC3)O6)C52C(=O)OC)O4 (stereo unspecified) |  | > 100 µM |  | > 100 µM | > 100 µM | > 100 µM | > 100 µM | > 100 µM | > 100 µM | 
O=C(COC(=O)c1cccc2c(=O)c3ccccc3[nH]c12)Nc1ccc(Cl)cc1 |  |  | > 100 µM |  | 97.3 µM | > 100 µM | > 100 µM | > 100 µM | > 100 µM | 
C[C@]12CC(C=O)C(=O)C(O)=C1CC[C@@H]1C2CC[C@@]2(C)C1CC[C@]2(C)O (stereo partly specified) |  | 72.7 µM | 34.5 µM | 46.8 µM | 33.4 µM | 35.8 µM |  | 31.6 µM | 44.8 µM | 
C=CC(=O)Nc1ccccc1CC(c1c[nH]c2ccccc12)c1c[nH]c2ccccc12 |  | 32.3 µM |  | 32.1 µM | 42.3 µM | 43.8 µM |  | 30.6 µM | 30 µM | 
COc1c(-c2ccc3c(c2)OCO3)oc2cc(O)cc(O)c2c1=O | > 100 µM |  |  |  |  |  |  |  |  | 
CC(C)N1C(C)[C@@H](c2ccccc2)O[P@@]1(=O)CC1=CCCCC1 (stereo partly specified) |  |  | > 100 µM |  | > 100 µM |  | > 100 µM | > 100 µM | > 100 µM | 
C=C(C)C1CCC2=CC(CC3(C)OC3C3=CC(C(=O)OC)=C(C1)O3)OC2=O (stereo unspecified) | > 100 µM |  |  |  |  |  |  |  |  | 
O=C(NCCCl)Nc1ccccc1 | > 100 µM |  |  |  |  |  |  |  |  | 
CN(CCCN1C(=O)c2cccc3cc([N+](=O)[O-])cc(c23)C1=O)CCN(C)CCCN1C(=O)c2cccc3cc([N+](=O)[O-])cc(c23)C1=O |  | > 39.3 µM |  | > 39.3 µM | > 39.3 µM | > 39.3 µM | > 39.3 µM | > 39.3 µM | > 39.3 µM | 
CCOC(=O)/C(C#N)=C\Sc1ccccc1 |  | 53.2 µM | 45.5 µM | 41.9 µM | > 100 µM | > 100 µM | > 100 µM | 57.3 µM | 63.8 µM | 
COC(=O)c1ccc(C(=O)OC)c2nc3cc(Cl)ccc3nc12 |  | > 100 µM | > 100 µM | > 100 µM | > 100 µM |  | > 100 µM | > 100 µM | > 100 µM | 
CCC[CH2][Sn]([CH2]CCC)([O]C(=O)c1cc(F)ccc1F)[O]C(=O)c1cc(F)ccc1F |  | 0.363 µM | 2.16 µM | 2.45 µM | 3.21 µM | 1.86 µM | 3.67 µM | 0.491 µM | 1.8 µM | GI50 (HOP-18 NSCLC): 2.21 µM; GI50 (RXF-631 renal): 154 nM; GI50 (DLD-1 colon): 0.915 µM; GI50 (LXFL 529 NSCLC): 176 nM; GI50 (DMS 273 small cell lung): 1200 nM; GI50 (XF 498 CNS): 1800 nM; GI50 (SNB-78 CNS): 419 nM; GI50 (M19-MEL melanoma): 537 nM
O=[N+]([O-])c1cccc(S(=O)(=O)N/N=C/c2cc(I)cc([N+](=O)[O-])c2O)c1 |  |  | > 100 µM | 52.9 µM |  | 66.4 µM | 78.6 µM | 48.3 µM | > 100 µM | 
CCOC(=O)C(=O)Nc1c(C)cccc1C(C)(C)C |  | > 100 µM |  | > 100 µM | > 100 µM | > 100 µM | > 100 µM | > 100 µM | > 100 µM | 
CCCS(=O)c1nc(COC(=O)NC)c(COC(=O)NC)n1C (stereo unspecified) |  | > 100 µM | > 100 µM | > 100 µM | > 100 µM | > 100 µM | > 100 µM | > 100 µM | > 100 µM | TGI (P388/ADR leukemia): > 100 µM; TGI (SN12K1 renal): > 100000 nM
Cc1ccc(C2[C@H]3C(=O)N(c4ccc(Cc5ccc(N6C(=O)[C@@H]7ON(c8ccccc8)C(c8ccc(C)cc8)[C@@H]7C6=O)cc5)cc4)C(=O)[C@H]3ON2c2ccccc2)cc1 (stereo partly specified) |  |  | > 100 µM | > 100 µM | > 100 µM |  | > 100 µM | > 100 µM | > 100 µM | 
O=[N+]([O-])c1ccc(C2SCc3nc4ccccc4n32)cc1 (stereo unspecified) |  | > 100 µM | > 100 µM | > 100 µM | 80.6 µM | > 100 µM | > 100 µM | > 100 µM | > 100 µM | 
O=C1NC2C3CC(OCc4ccccc4)(OCc4ccccc4)C2OC3O1 (stereo unspecified) |  |  | > 50 µM | > 50 µM | > 50 µM |  | > 50 µM |  | > 50 µM | 
CN(C)CCNC(=O)c1cccc2c1Oc1cccc([N+](=O)[O-])c1O2 | 31.6 µM |  |  |  |  |  |  |  |  | 
Oc1ccc(Cl)cc1Sc1cc(Cl)ccc1O | 26.1 µM |  |  |  |  |  |  |  |  | 
C=C1C(=O)O[C@@H]2CC(CO)=C([C@@H](C)CCCO)[C@@H](OC(=O)/C(C)=C\C)[C@H]12 | > 67.3 µM |  |  |  |  |  |  |  |  | 
COc1cc2c3cc1Oc1c(OC)c(OC)cc4c1[C@@H](Cc1ccc(O)c(c1)Oc1ccc(cc1)C[C@@H]3N(C)CC2)N(C)CC4 |  |  | 56.3 µM | 34 µM | 23.8 µM | > 100 µM |  | 24.8 µM | 26.2 µM | 
